Earlier results as cited in patent US9034830B2, “Methods and compositions for sustained delivery of drugs” (INTRATUS, INC., priority 2009, dated 2015).

Test system: patients

Brc1c(NC2=NCCN2)ccc2nccnc12 [Brimonidine]
more patients who had to discontinue due to lack of clinical effect (0.2% eye drop, FDA clinical data): 30% | drop in intraocular pressure (eye drop, dosed at least two times a day): ~24% | patients with side-effects (itching, redness, intolerance) necessitating stoppage of the drug (eye drop, per FDA data): up to 20%
